# From patent US7687640B2, “Cinnamide compound” (Eisai R&D Management Co., Ltd., priority 2004, dated 2010)
# Test system: Aβ42 production
# Assay: Quantification of Aβ peptide (Aβx-42 ELISA) in neuronal culture from rat fetus brain
# Assay type: cell-based
# Conditions: primary neuronal culture from cerebral cortices of embryonic day 18 Wistar rat; compound added on day 4 of culture, incubation for 3 days; Aβx-42 in medium by ELISA, % of CTRL; read-out: Effect to Reduce Aβ42 Production IC50
# Procedure: Quantification of Aβ Peptide in Neuronal Culture from Rat Fetus Brain (1)
# Primary neuronal cultures were prepared from cerebral cortices from embryonic day 18 Wistar rat (Charles River Japan, Yokohama, Japan). The embryos were aseptically removed from a pregnant rat under ether anesthesia. The brain was isolated from the embryo, and immersed in ice-cold L-15 medium (for example, Invitrogen Corp. Cat #11415-064, Carlsbad, Calif., USA, or SIGMA L1518, St. Louis. MO, USA). The cerebral cortex was collected under a stereoscopic microscope from the brain. The cerebral cortex fragments collected were subjected to enzyme treatment in an enzyme solution containing 0.25% trypsin (for example, Invitrogen Corp., Cat #15050-065, Carlsbad, Calif., USA) and 0.01% DNase (for example, Sigma D5025, St. Louis. MO, USA) at 37 C for 30 minutes to allow for cell dispersion. The enzyme reaction was terminated by addition of same volume of heat-inactivated horse serum. After centrifugation at 1500 rpm for 5 minutes, the supernatant was removed and 5-10 ml of medium was added to the cell pellet. Neurobasal Medium™ (Invitrogen Corp., Carlsbad, Calif., USA) supplemented with 2% B-27 supplement (Invitrogen Corp., Carlsbad, Calif., USA), 25 μM 2-mercaptoethanol (2-ME, WAKO, 139-06861, Osaka, Japan), 0.5 mM L-glutamine (for example, Invitrogen Corp., Cat # 25030-081, Carlsbad, Calif., USA), and 1% antibiotics-antimycotics (Invitrogen Corp., Cat # 15240-062, Carlsbad, Calif., USA) was used as the culture medium (Neurobasal/B27/2-ME). At the compound evaluation, the medium of the same composition not to add 2-ME alone (Neurobasal/B27) was used. The cell pellet was triturated by mild pipetting. Remaining cell pellet was removed by filtering through a 40-μm nylon mesh (Cell Strainer, Cat # 35-2340, Becton Dickinson Labware, Franklin Lakes, N.J., USA) and a neuronal cell suspension was obtained. The neuronal cell suspension was diluted with the Neurobasal/B27/2-ME medium and then plated in a volume of 100 μl/well to obtain an initial cell density of 5×10^5 cells/cm^2 in a 96-well polystyrene plate pre-coated with poly-L or D-lysine (for example, Falcon MICROTEST Tissue culture plate 96 well flat bottom with low evaporation lid (Cat # 35-3075, Becton Dickinson Labware, Franklin Lakes, N.J., USA) coated with poly-L-lysine using the method shown below, or BIOCOAT™ cell environments Poly-D-lysine cell ware 96-well plate, Cat # 35-6461, Becton Dickinson Labware, Franklin Lakes, N.J., USA). Poly-L-lysine coating was carried out as follows. Poly-L-lysine (SIGMA P2636, St. Louis, Mo., USA) solution at 100 μg/ml was prepared aseptically with 0.15 M Borate buffer (pH 8.5). The solution was added to a 96-well polystyrene […] at 50-100 μl/well and incubated at room temperature for one hour or more, or at 4 C overnight or longer. This was rinsed 4 or more times with sterile water, and then dried or rinsed with, for example, sterile PBS or medium, and used for plating cells. Cells were cultured for one day in an incubator of 5% CO2-95% air at 37 C, the entire amount of the medium was exchanged with fresh Neurobasal/B27/2-ME, and the cells were then cultured for further 3 days.
# Drugs were added on day 4 of culture as follows. The entire amount of the medium was removed from culture well, and Neurobasal/B27 medium was added at 180 μl/well. The test compound dimethyl sulfoxide (hereinafter abbreviated as DMSO) solution was diluted with Neurobasal/B27 so than it would be 10-fold of the desired final concentration. A diluent was added at 20 μl/well and mixed well. The final concentration of DMSO was 1% or less. Only DMSO was added to the control group.
# After incubation for 3 days, the entire amount of the medium was collected as ELISA sample. This was used without any dilution for Aβx-42 measurement, and diluted to 5-fold with the diluent supplied with ELISA kit for Aβx-40 measurement, before subjecting to respective ELISA assays. […]
row,Compound,IC50 [nM]
1,"COc1cc(/C=C2\CCCN(C3Cc4ccc(F)cc4C3)C2=O)ccc1-n1cnc(C)c1 [Example 991, (E)-1-[(2S) and (2R)-5-fluoroindan-2-yl]-3-[3-methoxy-4-(4-methyl-1H-imidazol-1-yl)benzylidene]piperidin-2-one]",60
2,"COc1cc(/C=C2\CCCN([C@H](C)c3ccc(F)cc3F)C2=O)ccc1-n1cnc(C)c1 (mixture of isomers) [Example 621, (E)-1-[(1R) and (1S)-1-(2,4-difluorophenyl)ethyl]-3-[3-methoxy-4-(4-methyl-1H-imidazol-1-yl)benzylidene]piperidin-2-one]",100
3,"COc1cc(/C=C2\CCCN(Cc3cc(Cl)nc(Cl)c3)C2=O)ccc1-n1cnc(C)c1 [Example 403, (E)-1-(2,6-dichloropyridine-4-ylmethyl)-3-[3-methoxy-4-(4-methyl-1H-imidazol-1-yl)benzylidene]piperidin-2-one]",90
